TD50 and carcinogen call data for seven compounds are collected here from PubChem BioAssay AID1745844 (Carcinogenic Potency Database (CPDB), 2022).

Active and inactive are the calls of the source. The rule behind the calls is not given here.

This data set has as its system rodent lifetime carcinogenesis bioassay, tumor incidence TD50. The data set is described as follows: carcinogenic potency in animals, long-term in vivo studies, CPDB compilation (AID 1745844).
Where [1] appears, read: mouse, strain B6C3F1, females, in feed, site: liver, lesion: hepatocellular adenoma, dosed 104 weeks, study length 104 weeks.
Where [2] appears, read: mouse, strain B6C3F1, females, in feed, site: liver, lesion: hepatocellular carcinoma, dosed 104 weeks, study length 104 weeks.
Setting [3] is: mouse, strain B6C3F1, males, in feed, site: liver, lesion: hepatocellular adenoma, dosed 104 weeks, study length 104 weeks.

The term TD50 denotes the dose at which the toxic effect under study appears in half of the subjects. Turning to `Cc1c(O)cc2c(c1C)OC(C)(CCCC(C)CCCC(C)CCCC(C)C)CC2` (configuration not stated), the TD50 reads like this: (mouse, strain B6C3F1, males, in feed, site: liver, lesion: hepatocellular carcinoma, dosed 96 weeks, study length 96 weeks) 5220 mg/kg/day; (mouse, strain B6C3F1, males, in feed, site: liver, lesion: several types, types named in the paper, dosed 96 weeks, study length 96 weeks) 3610 mg/kg/day.
In the case of `C1CCC(C(CC2CCCCN2)C2CCCCC2)CC1` (configuration not stated), the carcinogen call reads like this: (rat, strain Sprague-Dawley, females, in feed, site: liver, lesion: one or several types, types not named, dosed 52 weeks, study length 52 weeks) “negative (inactive)”; (rat, strain Sprague-Dawley, females, in feed, site: liver, lesion: one or several types, types not named, dosed 52 weeks, study length 56 weeks) “negative (inactive)”; (rat, strain Sprague-Dawley, males, in feed, site: liver, lesion: one or several types, types not named, dosed 52 weeks, study length 52 weeks) “negative (inactive)”; (rat, strain Sprague-Dawley, males, in feed, site: liver, lesion: one or several types, types not named, dosed 52 weeks, study length 56 weeks) “negative (inactive)”.
For the compound `CC(C)(Oc1ccc(C2CC2(Cl)Cl)cc1)C(=O)O` (configuration not stated), the TD50 reads like this: (mouse, strain C57BL/6N, males, in feed, site: liver, lesion: hepatocellular adenoma, dosed 78 weeks, study length 78 weeks) 5.89 mg/kg/day; (mouse, strain C57BL/6N, males, in feed, site: liver, lesion: hepatocellular adenoma, dosed 89 weeks, study length 91 weeks) 19.2 mg/kg/day; (mouse, strain C57BL/6N, males, in feed, site: liver, lesion: hepatocellular carcinoma, dosed 78 weeks, study length 78 weeks) 12.3 mg/kg/day; (mouse, strain C57BL/6N, males, in feed, site: liver, lesion: hepatocellular carcinoma, dosed 89 weeks, study length 91 weeks) 46.4 mg/kg/day; (mouse, strain C57BL/6N, males, in feed, site: liver, lesion: several types, types named in the paper, dosed 78 weeks, study length 78 weeks) 4.17 mg/kg/day; (mouse, strain C57BL/6N, males, in feed, site: liver, lesion: several types, types named in the paper, dosed 89 weeks, study length 91 weeks) 12.1 mg/kg/day. In addition, the TD50 by setting is: (rat, strain Fischer 344, females, in feed, site: stomach, glandular, lesion: carcinoid tumor, malignant, dosed 104 weeks, study length 104 weeks) 531 mg/kg/day; (rat, strain Fischer 344, males, in feed, site: stomach, glandular, lesion: carcinoid tumor, malignant, dosed 104 weeks, study length 104 weeks) 103 mg/kg/day. In addition, the carcinogen call reads like this: (rat, strain Fischer 344, males, in feed, site: liver, lesion: hepatocellular carcinoma, dosed 60 weeks, study length 60 weeks) “positive”; (rat, strain Fischer 344, males, in feed, site: liver, lesion: neoplastic nodule, dosed 60 weeks, study length 60 weeks) “positive”; (rat, strain Fischer 344, males, in feed, site: liver, lesion: several types, types named in the paper, dosed 60 weeks, study length 60 weeks) “positive”; (rat, strain Fischer 344, males, in feed, site: liver, lesion: several types, types named in the paper, dosed 95 weeks, study length 95 weeks) “positive”; (rat, strain Fischer 344, males, in feed, site: testis, lesion: Leydig-cell tumor, dosed 95 weeks, study length 95 weeks) “negative (inactive)”.
For the compound `C[C@@H]1Cc2c(Cl)cc(C(=O)N[C@@H](Cc3ccccc3)C(=O)O)c(O)c2C(=O)O1`, the TD50 is 109 mg/kg/day under setting [1]; 34.8 mg/kg/day under setting [2]; 4.64 mg/kg/day (mouse, strain B6C3F1, males, in feed, site: kidney, lesion: adenoma, dosed 104 weeks, study length 104 weeks); 10.3 mg/kg/day (mouse, strain B6C3F1, males, in feed, site: kidney, lesion: carcinoma, dosed 104 weeks, study length 104 weeks); 3.53 mg/kg/day (mouse, strain B6C3F1, males, in feed, site: kidney, lesion: several types, types named in the paper, dosed 104 weeks, study length 104 weeks); 48.1 mg/kg/day under setting [3]. Also, the TD50 reads like this: (mouse, strain B6C3F1, males, in feed, site: liver, lesion: hepatocellular carcinoma, dosed 104 weeks, study length 104 weeks) 58.7 mg/kg/day; (rat, strain DA (from Hannover), males, by gavage, site: kidney, lesion: adenocarcinoma, dosed 110 weeks, study length 110 weeks) 0.368 mg/kg/day; (rat, strain DA (from Hannover), males, by gavage, site: urinary bladder, lesion: transitional-cell carcinoma, dosed 110 weeks, study length 110 weeks) 1.18 mg/kg/day; (rat, strain Fischer 344, females, by gavage, site: kidney + mammary gland, lesion: tubule adenoma + tubule carcinoma + fibroadenoma, dosed 103 weeks, study length 104 weeks) 0.386 mg/kg/day; (rat, strain Fischer 344, females, by gavage, site: kidney, lesion: tubule adenoma + tubule carcinoma, dosed 103 weeks, study length 104 weeks) 0.485 mg/kg/day; (rat, strain Fischer 344, females, by gavage, site: kidney, lesion: tubule adenoma, dosed 103 weeks, study length 104 weeks) 0.813 mg/kg/day. Moreover, the TD50 by setting is: (rat, strain Fischer 344, females, by gavage, site: kidney, lesion: tubule carcinoma, dosed 103 weeks, study length 104 weeks) 1.31 mg/kg/day; (rat, strain Fischer 344, females, by gavage, site: mammary gland, lesion: fibroadenoma, dosed 103 weeks, study length 104 weeks) 0.55 mg/kg/day; (rat, strain Fischer 344, males, by gavage, site: any site (literature study), lesion: several types, types named in the paper, dosed 103 weeks, study length 104 weeks) 0.0863 mg/kg/day; (rat, strain Fischer 344, males, by gavage, site: kidney, lesion: tubule adenoma + tubule carcinoma + tubule epithelium adenoma + tubular-cell carcinoma, bilateral, dosed 103 weeks, study length 104 weeks) 0.0579 mg/kg/day; (rat, strain Fischer 344, males, by gavage, site: kidney, lesion: tubule adenoma + tubule epithelium adenoma, dosed 103 weeks, study length 104 weeks) 0.241 mg/kg/day; (rat, strain Fischer 344, males, by gavage, site: kidney, lesion: tubule carcinoma + tubular-cell carcinoma, bilateral, dosed 103 weeks, study length 104 weeks) 0.0756 mg/kg/day. The TD50 (rat, strain Fischer 344, males, by gavage, site: liver, lesion: hepatocellular adenoma + hepatocellular carcinoma + neoplastic nodule, dosed 103 weeks, study length 104 weeks) was found to be 2.5 mg/kg/day; the TD50 (rat, strain Lewis, females, by gavage, site: kidney, lesion: adenocarcinoma, dosed 110 weeks, study length 110 weeks) came out at 2.56 mg/kg/day; the TD50 (rat, strain Lewis, males, by gavage, site: kidney, lesion: adenocarcinoma, dosed 110 weeks, study length 110 weeks) is 1.25 mg/kg/day. In addition, the carcinogen call (rat, strain DA (from Hannover), females, by gavage, site: kidney, lesion: one or several types, types not named, dosed 110 weeks, study length 110 weeks) was “negative (inactive)” and the carcinogen call (rat, strain Wistar, both sexes, by gavage, site: any site (literature study), lesion: one or several types, types not named, dosed 50 weeks, study length 110 weeks) was “negative (inactive)”.
For `COC(=O)C1=C(C)NC(C)=C(C(=O)OCCN2CCN(C(c3ccccc3)c3ccccc3)CC2)C1c1cccc([N+](=O)[O-])c1` (configuration not stated), the TD50 was 545 mg/kg/day (inactive) (mouse, strain ICR, females, in feed, site: liver, lesion: hepatocellular adenoma, dosed 78 weeks, study length 78 weeks); 438 mg/kg/day (inactive) (mouse, strain ICR, females, in feed, site: lung, lesion: alveolar/bronchiolar adenoma, dosed 78 weeks, study length 78 weeks); 157 mg/kg/day (inactive) (rat, strain Charles River CD (Sprague-Dawley), females, in feed, site: liver, lesion: hepatocellular adenoma, dosed 104 weeks, study length 104 weeks); 8240 mg/kg/day (inactive) (rat, strain Charles River CD (Sprague-Dawley), males, in feed, site: liver, lesion: hepatocellular adenoma, dosed 104 weeks, study length 104 weeks); 405 mg/kg/day (inactive) (rat, strain Charles River CD (Sprague-Dawley), males, in feed, site: liver, lesion: hepatocellular carcinoma, dosed 104 weeks, study length 104 weeks). Moreover, the carcinogen call by setting is: (mouse, strain ICR, males, in feed, site: liver, lesion: hepatocellular adenoma, dosed 78 weeks, study length 78 weeks) “negative (inactive)”; (mouse, strain ICR, males, in feed, site: liver, lesion: hepatocellular carcinoma, dosed 78 weeks, study length 78 weeks) “negative (inactive)”; (mouse, strain ICR, males, in feed, site: lung, lesion: alveolar/bronchiolar adenoma, dosed 78 weeks, study length 78 weeks) “negative (inactive)”; (rat, strain Charles River CD (Sprague-Dawley), females, in feed, site: liver, lesion: hepatocellular carcinoma, dosed 104 weeks, study length 104 weeks) “negative (inactive)”.
Regarding `OCCN(CCO)C(=S)S`, the TD50 was 138 mg/kg/day (mouse, strain B6AKF1, females, oral dosing, site: any site (literature study), lesion: several types, types named in the paper, dosed 79 weeks, study length 79 weeks); 298 mg/kg/day (mouse, strain B6AKF1, females, oral dosing, site: liver, lesion: hepatoma, dosed 79 weeks, study length 79 weeks); 850 mg/kg/day (mouse, strain B6AKF1, females, oral dosing, site: lung, lesion: adenoma, dosed 79 weeks, study length 79 weeks); 45.6 mg/kg/day (mouse, strain B6AKF1, males, oral dosing, site: any site (literature study), lesion: several types, types named in the paper, dosed 79 weeks, study length 79 weeks); 41.5 mg/kg/day (mouse, strain B6AKF1, males, oral dosing, site: liver, lesion: hepatoma, dosed 79 weeks, study length 79 weeks); 48.4 mg/kg/day (mouse, strain B6C3F1, females, oral dosing, site: any site (literature study), lesion: several types, types named in the paper, dosed 79 weeks, study length 79 weeks). For the same compound, the TD50 is 56.4 mg/kg/day (mouse, strain B6C3F1, females, oral dosing, site: liver, lesion: hepatoma, dosed 79 weeks, study length 79 weeks); 1080 mg/kg/day (mouse, strain B6C3F1, females, oral dosing, site: lung, lesion: adenoma, dosed 79 weeks, study length 79 weeks); 27.8 mg/kg/day (mouse, strain B6C3F1, males, oral dosing, site: any site (literature study), lesion: several types, types named in the paper, dosed 79 weeks, study length 79 weeks); 34.5 mg/kg/day (mouse, strain B6C3F1, males, oral dosing, site: liver, lesion: hepatoma, dosed 79 weeks, study length 79 weeks).
Take `Cc1cc(C)nc(NS(=O)(=O)c2ccc(N)cc2)n1`: the TD50 is 2820 mg/kg/day (mouse, strain B6C3F1, females, in feed, site: liver, lesion: hepatocellular adenoma, dosed 78 weeks, study length 78 weeks); 12300 mg/kg/day under setting [1]; 16500 mg/kg/day under setting [2]; 8740 mg/kg/day (mouse, strain B6C3F1, females, in feed, site: liver, lesion: several types, types named in the paper, dosed 104 weeks, study length 104 weeks); 3100 mg/kg/day (mouse, strain B6C3F1, females, in feed, site: lung, lesion: alveolar/bronchiolar carcinoma, dosed 52 weeks, study length 52 weeks); 12700 mg/kg/day (mouse, strain B6C3F1, females, in feed, site: lung, lesion: alveolar/bronchiolar carcinoma, dosed 104 weeks, study length 104 weeks). For the same compound, the TD50 is, setting by setting: (mouse, strain B6C3F1, females, in feed, site: thyroid gland, lesion: follicular-cell adenoma, dosed 78 weeks, study length 78 weeks) 618 mg/kg/day; (mouse, strain B6C3F1, females, in feed, site: thyroid gland, lesion: follicular-cell adenoma, dosed 104 weeks, study length 104 weeks) 2160 mg/kg/day; (mouse, strain B6C3F1, females, in feed, site: thyroid gland, lesion: follicular-cell carcinoma, dosed 104 weeks, study length 104 weeks) 54800 mg/kg/day; (mouse, strain B6C3F1, females, in feed, site: thyroid gland, lesion: several types, types named in the paper, dosed 104 weeks, study length 104 weeks) 2060 mg/kg/day; under setting [3], 14900 mg/kg/day; (mouse, strain B6C3F1, males, in feed, site: liver, lesion: several types, types named in the paper, dosed 104 weeks, study length 104 weeks) 11700 mg/kg/day. Also, the TD50 runs as follows: (mouse, strain B6C3F1, males, in feed, site: thyroid gland, lesion: follicular-cell adenoma, dosed 78 weeks, study length 78 weeks) 3370 mg/kg/day; (mouse, strain B6C3F1, males, in feed, site: thyroid gland, lesion: follicular-cell adenoma, dosed 104 weeks, study length 104 weeks) 1220 mg/kg/day; (mouse, strain B6C3F1, males, in feed, site: thyroid gland, lesion: follicular-cell carcinoma, dosed 104 weeks, study length 104 weeks) 72100 mg/kg/day; (mouse, strain B6C3F1, males, in feed, site: thyroid gland, lesion: several types, types named in the paper, dosed 104 weeks, study length 104 weeks) 1190 mg/kg/day.
